{
  "source": "patent US20090074740A1",
  "about": "“Use of haptoglobin genotyping in diagnosis and treatment of defective reverse cholesterol transport (RCT)” (priority 2007, published 2009)",
  "molecules": {"B1": {"name": "Haptoglobin: Highly conserved plasma glycoprotein, the major protein that binds free hemoglobin (protein, UniProt P00738 19-406, looked up)", "Haptoglobin": "VDSGNDVTDIADDGCPKPPEIAHGYVEHSVRYQCKNYYKLRTEGDGVYTLNDKKQWINKAVGDKLPECEADDGCPKPPEIAHGYVEHSVRYQCKNYYKLRTEGDGVYTLNNEKQWINKAVGDKLPECEAVCGKPKNPANPVQRILGGHLDAKGSFPWQAKMVSHHNLTTGATLINEQWLLTTAKNLFLNHSENATAKDIAPTLTLYVGKKQLVEIEKVVLHPNYSQVDIGLIKLKQKVSVNERVMPICLPSKDYAEVGRVGYVSGWGRNANFKFTDHLKYVMLPVADQDQCIRHYEGSTVPEKKTPKSPVGVQPILNEHTFCAGMSKYQEDTCYGDAGSAFAVHDLEEDTWYATGILSFDKSCAVAEYGVYVKVTSIQDWVQKTIAEN"}},
  "key": {"[1]": {"conditions": "per 1 mg, National Formulary; cited from earlier work"}, "J774 macrophages": {"system": "J774 macrophages", "assay": "Cholesterol efflux from J774 macrophages elicited by serum from Hp 2-2 DM mice treated with vitamin E", "format": "in vivo", "conditions": "40 mg/kg/day beginning three weeks after induction of DM, serum on J774 cells", "text": "(§1) Hp transgenic mice and veneration of DM. All protocols were approved by the Animal Care and Use Committee of the Technion. […]. The characterization and generation of Hp 1 and Hp 2 mice in a C57B1/6 genetic background has previously been described in detail. Briefly, the murine Hp 1 allele is the wild type murine Hp allele. The Hp 2 allele exists only in man and a murine Hp 2 allele was genetically engineered in vitro and its insertion targeted at the Hp locus by homologous recombination. […] Diabetes was generated in these mice at 8 weeks of age using a low dose streptozotocin protocol (NIH Funded Consortium on Animal Models of Diabetic Complications protocol available on the consortium web site www.amdcc.org) and confirmed by measuring plasma glucose. Mice were diabetic for at least 1 month prior to analysis.\n(§2) Vitamin E (racemic, alpha-tocopherol acetate, Merck) was administered to a subset of the Hp 2-2 DM mice at a dose of 40 mg/kg/day beginning three weeks after the induction of DM."}, "[2]": {"assay": "Glucose control and lipid profile in Hp 2-2 DM mice given vitamin E", "format": "in vivo", "conditions": "40 mg/kg/day", "text": "as §1, §2"}, "[3]": {"assay": "ICARE study: vitamin E versus placebo in Hp 2-2 Type II DM individuals (MI, stroke, CVD death)", "format": "in vivo, human", "text": "The study protocol of the ICARE study involves the following: participants were drawn from 47 primary health clinics of the Clalit Health Services in the northern sector of Israel. Patients were eligible for the study if they had Type II DM and were 55 years of age or older. […] These Hp 2-2 individuals were randomly assigned to treatment with either vitamin E or placebo. The major study outcomes (MI, stroke, CVD death) were identified prospectively in this population over an 18 month period. A preplanned secondary analysis of ICARE was to assess the ability of vitamin E therapy to influence outcomes in those ICARE participants who were also taking statins. Statin use as prospectively defined in ICARE was based on the use of statins by the participant in at least eight of the twelve months preceding enrollment of the participant in the study. The decision to use statins for a particular participant was under the discretion of the patient's primary care physician and was in no way influenced by the patient's participation in the ICARE study.\nRobust clinical data has shown that individuals homozygous for the Hp 2 allele (Hp 2-2 genotype), 40% of DM individuals, have an up to 500% increased risk of CVD (21-24). A vast amount of basic science, animal and epidemiological data has provided the logic for targeting vitamin E administration specifically to DM individuals with the Hp 2-2 genotype. In the ICARE study (Israel CArdiovascular events Reduction with vitamin E (ClinicalTrials.gov# NCT00220831)) a prospective randomized placebo controlled trial of vitamin E therapy in DM individuals with the Hp 2-2 genotype, is was shown that vitamin E therapy results in a 50% reduction in CVD events. However, only about half of the Hp 2-2 DM participants in ICARE received statin therapy."}, "J774 macrophage cells": {"system": "J774 macrophage cells", "assay": "HDL-mediated cholesterol efflux from J774 cells incubated with purified HDL, native or glycated Hb and Hp", "format": "cell-based, murine", "conditions": "efflux with purified HDL taken as 100%; 0.8 umol/L; 3-hour incubation", "protocol": "Cell Culture. J774 A.1 murine macrophage cells were purchased from the American Type Culture Collection (Manassas, Va.) and grown in DMEM supplemented with 5% FBS.\nCholesterol Efflux From Macrophages. Murine J774 cells (1×10^6/mL) were plated in 24-well plates for 48 hours, then washed and incubated in DMEM without serum containing ^3H-cholesterol (2 uCi/mL) for 1 hour. Cells were washed to remove unincorporated label and then incubated in 1 mL of DMEM supplemented with: (1) nothing (negative control); (2) purified HDL (100 ug/mL protein) (positive control); or (3) 30 uL of serum from individuals with or without DM with the different Hp genotypes. In studies using purified Hp and Hb rather than serum, the cells were incubated with purified HDL ([…] protein) with different combinations of native Hb, glycated Hb, Hp1-1, and Hp2-2 (all at 0.8 umol/L).\nAfter a 3-hour incubation at 37° C. to permit efflux of ^3H-cholesterol from the cells into the medium, 500 uL of the medium was collected, the cells washed with PBS, and 0.1 N NaOH added to the cells. Cellular and medium ^3H-cholesterol were determined by liquid scintillation counting (LSC). The percentage of cholesterol efflux was calculated as the ratio of total counts per minute in the medium divided by the total counts per minute in the medium and in the cells. HDL-mediated cholesterol efflux (resulting from purified HDL or HDL found in the serum) was calculated after subtraction of the nonspecific efflux obtained in cells incubated in the absence of purified HDL or serum. Results reported for efflux elicited by serum samples are normalized for the serum HDL concentration derived as (measured efflux)(measured HDL in mg/dL)/50."}, "HDL associated lipids": {"system": "HDL associated lipids", "assay": "Measurement of HDL-associated lipid peroxides", "format": "biochemical, human", "conditions": "Hb 1 umol/L, 100 ug HDL", "protocol": "Measurement of HDL-Associated Lipid Peroxides. Glycosylated or nonglycosylated Hb (1 umol/L) was incubated with 100 ug of HDL and 20 umol/L ascorbic acid in PBS with or without Hp1-1 or Hp2-2 (equimolar to Hb) for 3 hours at 37° C. Lipid peroxides were measured as previously described."}},
  "note": "Where “and” joins values, the source holds several entries; their conditions need not be identical. Identical values can stand only once. Entries after “also recorded” stand apart in the source; their conditions may differ.",
  "data": [
    {"molecule": "Cc1c(C)c2c(c(C)c1O)CCC(C)(CCCC(C)CCCC(C)CCCC(C)C)O2", "note": "(racemic) [all-rac-.alpha-tocopherol]", "values": [
      {"measurement": "specific activity of 1 mg", "setting": "[1]", "result": 1.10, "unit": "IU"}
    ]},
    {"molecule": "CC(=O)Oc1c(C)c(C)c2c(c1C)CCC(C)(CCCC(C)CCCC(C)CCCC(C)C)O2", "note": "(racemic) [all-rac-α-tocopherol acetate]", "values": [
      {"measurement": "specific activity of 1 mg", "setting": "[1]", "result": 1.00, "unit": "IU"}
    ]},
    {"molecule": "CC(=O)Oc1c(C)c(C)c2c(c1C)CCC(C)(CCC[C@H](C)CCC[C@H](C)CCCC(C)C)O2", "note": "(mixture of isomers) [vitamin E, alpha-tocopherol acetate]", "values": [
      {"measurement": "effect on the impairment in cholesterol efflux produced by DM in Hp 2 mice", "setting": "J774 macrophages", "result": "prevented; also recorded: prevent the impairment in efflux"},
      {"measurement": "effect on the impairment in cholesterol efflux produced by DM in Hp 2 mice", "setting": "J774 macrophages; listed as Vitamin E", "result": "prevent the impairment in efflux"},
      {"measurement": "effect on glucose control", "setting": "[2]", "result": "no effect"},
      {"measurement": "effect on the lipid profile", "setting": "[2]", "result": "no effect"},
      {"measurement": "reduction in CVD events", "setting": "[3]; DM individuals with the Hp 2-2 genotype, ICARE overall", "result": 50, "unit": "%"},
      {"measurement": "event rate (MI, stroke, CVD death)", "setting": "[3]; Hp 2-2 DM individuals taking statins in at least eight of the twelve months before enrollment, 18 month period", "result": 1.3, "unit": "%"},
      {"measurement": "event rate (MI, stroke, CVD death)", "setting": "[3]; Hp 2-2 DM individuals taking statins in at least one of the twelve months before enrollment", "result": 1.7, "unit": "%"},
      {"measurement": "hazard ratio [HR] versus placebo", "setting": "[3]; Hp 2-2 DM individuals taking statins, 95% CI 0.15-0.83", "result": 0.31}
    ]},
    {"molecule": "CC(=O)Oc1c(C)c(C)c2c(c1C)CC[C@@](C)(CCC[C@H](C)CCC[C@H](C)CCCC(C)C)O2", "note": "[RRR-.alpha-tocopherol acetate]", "values": [
      {"measurement": "specific activity of 1 mg", "setting": "[1]", "result": 1.36, "unit": "IU"}
    ]},
    {"molecule": "Cc1c(C)c2c(c(C)c1O)CC[C@@](C)(CCC[C@H](C)CCC[C@H](C)CCCC(C)C)O2", "note": "[RRR-.alpha-tocopherol]", "values": [
      {"measurement": "specific activity of 1 mg", "setting": "[1]", "result": 1.49, "unit": "IU"}
    ]},
    {"molecule": "glycated Hb: Human hemoglobin glycated in vitro using glycolaldehyde", "values": [
      {"measurement": "reduction in HDL-mediated cholesterol efflux", "setting": "J774 macrophage cells", "result": "35% and 34±3%"},
      {"measurement": "increase in HDL-associated lipid peroxides", "setting": "HDL associated lipids; 20 umol/L ascorbic acid, 3 hours at 37 C, mean of 2 independent experiments", "result": "142.3 nmol of lipid peroxide per milligram of HDL"}
    ]},
    {"molecule": "native Hb: Native hemoglobin isolated from fresh human blood", "values": [
      {"measurement": "effect on HDL-mediated efflux of 3H-cholesterol", "setting": "J774 macrophage cells", "result": "did not cause any reduction; also recorded: no effect"},
      {"measurement": "increase in HDL-associated lipid peroxides", "setting": "HDL associated lipids; 3 hours", "result": "no increase"}
    ]},
    {"molecule": "B1", "values": [
      {"measurement": "effect on HDL-mediated efflux of 3H-cholesterol", "setting": "J774 macrophage cells", "result": "no effect"}
    ]}
  ]
}
